From publication PMC5800123, “Preparation and Optimisation of Cross-Linked Enzyme Aggregates Using Native Isolate White Rot Fungi Trametes versicolor and Fomes fomentarius for the Decolourisation of Synthetic Dyes” (International Journal of Environmental Research and Public …, 2017)

What was measured:
[1] = system: T1, free laccase from T. versicolor (TV); settings: read-out: Km Free Laccase; free enzyme from crude culture supernatant; ABTS 0.05-2.0 mM; general assay buffer 0.1 M sodium acetate pH 4.5
T1 construct: gene LCC1

[2] = system: T2, free laccase from F. fomentarius (FF); settings: read-out: Km Free Laccase; free enzyme from crude culture supernatant; ABTS 0.05-2.0 mM; general assay buffer 0.1 M sodium acetate pH 4.5
T2 construct: gene lac

CCn1c(=NN=c2sc3cc(S(=O)(=O)O)ccc3n2CC)sc2cc(S(=O)(=O)O)ccc21 [ABTS]
Km [1]: 1900 µM | Km [2]: 87 µM
